In patent US20090062359A1 (AlgoRx, priority 2002, published 2009):
“And” between values parts separate entries of the source, which are not always exact repeats. Identical values can stand only once.

Tests used:
[1] = tested on: animal models of inflammatory and neuropathic pain; details: administered locally; formalin test and spinal nerve ligation; cited from earlier work
patients = details: Langman et al, Lancet 1994; cited from earlier work
rats = details: systemic, cited from earlier work
[2] = human, in vivo, 300 ug
Protocol: The pharmacokinetic parameters of Cmax, Tmax, AUC(0−tlast) and t½ were evaluated.

[3] = tested on: subjects undergoing transpositional osteotomy (bunionectomy); experiment: Bunionectomy efficacy study (Phase II): VAS pain at the operation site and rescue analgesia; type: in vivo, human; details: for VAS pain score, mean +/− SEM: 1000 μg into the wound, n = 11
Protocol: The primary efficacy endpoint was the proportion of subjects in each treatment group requiring opioid analgesia in the first 24 hours post-operatively. The proportions were compared amongst treatment groups using the Cochran-Haenszel test. Secondary efficacy end points included: i) proportion of subjects in each treatment group requiring opioid analgesia in the first 36 hour period post-operatively (Similarly, the proportions were compared amongst treatment groups using the Cochran-Haenszel test); ii) proportion of subjects in each treatment group requiring opioid analgesia in the 10 day period post-operatively (Similarly, the proportions were compared amongst treatment groups using the Cochran-Haenszel test); iii) time to first usage of opioid analgesia in each treatment group (a survival analysis approach will be used: the product-limit (Kaplan-Meier) method will be applied to time to first usage of opioid analgesia. The median time to first usage of opioid analgesia will be estimated in both treatment groups. Pairwise comparisons will be performed to test for equality of the survival curves between the 2 treatment groups using both the log-rank and the Wilcoxon test); iv) total usage of analgesia in each treatment group (the total usage of analgesia will be compared by an analysis of variance with treatment and center as independent variables. A pairwise comparison will be performed between the treatment groups); and v) VAS assessment of pain at the site of operation in each treatment group (The VAS score at each time point will be compared by an analysis of variance with treatment and center as independent variables. A pairwise comparison will be performed between the treatment groups). […] The efficacy analysis was performed on the data obtained ten days postoperatively. The safety analysis was performed based on the safety data for the entire study, including the 6 week and 12 week follow-up periods. The blind was broken at the time the efficacy analysis was performed. However, the individual treatment assignment was available to the statistical analysis group only. All other personnel involved in the study, including the Investigator, study monitor and proprietary staff, remained blinded until the entire study was completed.
The study was designed to include 40 evaluation subjects. […] Each subject had six (6) study visits: a Screening Day (Day −28 to −1), an Operation Day (Day 0), and four (4) Follow-up visits (scheduled for Days 3, 10 and weeks 6 and 12).
On Operation Day (Day 0) the following was performed: a) Pre-operation: Prior to the initiation of an ankle block, inclusion/exclusion criteria assessment was performed. […] Immediately prior to wound closure, the Investigator slowly dripped the study medication (4 mL) from a syringe into the wound, ensuring even tissue exposure. The wound was then be closed according to normal practices and procedures.
In the 24 hours following administration of study medication, vital signs (supine pulse rate and blood pressure) were recorded at 1, 2, 4 and 24 hours post administration. VAS assessment of pain at the operation site was performed at 1, 4, 8, 12 and 24 hours post administration. In those instances where VAS measurements coincide with blood sampling procedures, the VAS assessment was performed first. […] The quantity of each blood sample was 10 mL. […] Adverse events were spontaneously reported by the subject and recorded. […]

[4] = cited from earlier work
[5] = tested on: subjects with osteoarthritis of the knee; experiment: Osteoarthritis of the knee safety study (Phase 1): safety, tolerability and VAS pain after intra-articular infiltration; type: in vivo, human; details: for patients reporting transient burning pain immediately following instillation: after 2% lignocaine
Protocol: The primary objective of the study was to evaluate the safety and tolerability of intra-articular capsaicin, when co-administered with intra-articular local anesthetic, compared to placebo, in subjects with end-stage osteoarthritis of the knee, already scheduled to receive knee replacements.
The study was designed to include 16 evaluation subjects. […] Sixteen subjects completed the study.
Patients were treated randomly and in double-blind fashion in four treatment groups, with each group having a progressively longer interval between the intra-articular administration of study medication and subsequent total knee replacement (2, 4, 7, and 14 days). […] Gross and microscopic pathology analysis was completed for each treatment group before the next treatment group was treated.
Each subject had 3 study visits: a Screening Day (Day −7 to −1), the Treatment Day (Day 0), and a Post-Treatment Day (scheduled for Day +2, +4, +7, or +14). On the Treatment Day the subject was randomized, pre-treatment evaluation was performed. The patients were brought into the procedure room, and a VAS pain score was taken (0 mm—no pain, 100 mm—extreme pain). Once the patient had marked his or her pain on the card, he/she was prepped for knee cannulation. Once the cannula was placed, the patient received by intra-articular infiltration, 3 mg/kg (maximum dose of 200 mg) of 2% lignocaine into the knee scheduled to be replaced.
VAS pain scores as well as verbal reports were taken immediately following administration, as well as prior to knee replacement surgery. No subjects discontinued from the study due to adverse events.
On the Post-Treatment Day, study evaluation was performed followed by the scheduled knee replacement, with intra-operative bone and soft tissue biopsies performed for subsequent examination. […] This therefore left the 3 placebo and 9 active patients from the 4 day, 7 day, and 14 day cohorts.

CN(C)CCC=C1c2ccccc2CCc2ccccc21 [amitriptyline]
local antinociceptive action [1]: produced local antinociceptive actions

CNCCCN1c2ccccc2CCc2ccccc21 [desipramine]
local antinociceptive action [1]: produced local antinociceptive actions

CN1C(C(=O)Nc2ccccn2)=C(O)c2ccccc2S1(=O)=O [piroxicam]
patients experiencing gross bleeding and ulceration (patients): up to 4%

COc1cc(CNC(=O)CCCC/C=C/C(C)C)ccc1O [purified capsaicin, N-(4-hydroxy-3-methoxybenzyl)-8-methylnon-trans-6-enamide]
effect on radiation induced hyperalgesia (rats; final doses of 25 mg/kg or less prior to ultra violet radiation): prevented radiation induced hyperalgesia
effect on pain threshold (rats; final doses of 50 mg/kg or greater): pain threshold elevated
AUC(0−tlast) [2]: 0.49883 ng·h/mL
study subjects requiring rescue (opioid rescue) ([3]; 1000 μg prior to wound closure, within 72 hours, n=11): 45%
VAS pain score, mean +/− SEM ([3]; 8 hr): 5.5 +/− 2.3
VAS pain score, mean +/− SEM ([3]; 12 hr): 8.2 +/− 3.8
VAS pain score, mean +/− SEM ([3]; 24 hr): 1.9 +/− 1.0
VAS pain score, mean +/− SEM ([3]; 48 hr): 5.9 +/− 2.5
solubility in organic solvents ([4]; alcohol, ether, benzene and chloroform): freely soluble
solubility in water ([4]; water): practically insoluble
patients reporting transient burning pain immediately following instillation ([5]; 10 μg capsaicin intra-articular): 0 of 4
patients reporting transient burning pain immediately following instillation ([5]; 100 μg capsaicin intra-articular): 1 of 4
duration of post-administration (hyper)algesic pain ([5]; 100 μg dose group, single subject): 9 min
patients reporting transient burning pain immediately following instillation ([5]; 300 μg capsaicin intra-articular): 4 of 4
duration of post-administration (hyper)algesic pain ([5]; 300 μg dose group, individual subjects): 17 minutes and 25 minutes (2×) and 42 minutes
tolerability ([5]; 10, 100 and 300 μg intra-articular): well tolerated at all dose levels
treatment related systemic side effects ([5]; all dose levels): No treatment related systemic side effects were seen
gross and microscopic pathology ([5]; all dose levels, knee tissue at replacement): normal
onset of post-administration (hyper)algesia after administration ([5]; all episodes, 100 μg and 300 μg dose groups): ≤ 5 min
effect on proprioception at the injected knee ([5]; any dose group at any time point): no discernable effect
average duration of post injection hyperalgesia ([5]; burning sensation, 100 μg and 300 μg dose groups): less than thirty minutes
reduction of VAS pain score, before administration versus day of surgery ([5]; capsaicin group (9 active patients, 10-300 μg), 4 day, 7 day and 14 day cohorts): 62±14%
treatment related indication of efficacy (VAS) ([5]; dose levels 10 μg, 100 μg and 300 μg): No clear treatment related indication of efficacy
